Results published in patent publication US20050164929A1, “Methods of preventing and treating inflammatory bowel disease” (LUPINE LOGIC, INC., priority 2000, published 2005).

Experiments:
[1] = test system: NIH 3T3 murine embryonic fibroblast cells; test: BrdU incorporation bioassay of RP-HPLC peak fractions; type: cell-based, mouse; settings: BrdU incorporation
Method: The biological activity of CG53135-05 related species collected from the 4 peaks identified by LC and MS was measured by treatment of serum-starved cultured NIH 3T3 murine embryonic fibroblast cells with various doses of the isolated CG53135-05 related species and measurement of incorporation of bromodeoxyuridine (BrdU) during DNA synthesis. For this assay, cells were cultured in Dulbecco's modified Eagle's medium supplemented with 10% fetal bovine serum. Cells were grown in 96-well plates to confluence at 37° C. in 10% CO2/air and then starved in Dulbecco's modified Eagle's medium for 24-72 hours. CG53135-05-related species were added and incubated for 18 hours at 37° C. in 10% CO2/air. BrdU ([…]) was added and incubated with the cells for 2 hours at 37° C. in 10% CO2/air. Incorporation of BrdU was measured by enzyme-linked immunosorbent assay according to the manufacturer's specifications (Roche Molecular Biochemicals, Indianapolis, Ind.).
Peak 4 was not included in this assay since insufficient material was collected (Peak 4 is less than 3% of the total peak area for CG53135-05).

endothelial cells = test: Proliferation summary for variants; type: cell-based; settings: in vitro
Method: (§1) Experiments were performed to evaluate the proliferative response of representative cell types to CG53135, e.g., a full-length tagged variant (CG53135-01), a deletion variant (CG53135-02), and a full-length codon-optimized untagged variant (CG53135-05).
(§2) CG53135-02 (batch 1 and 13) was also used in these experiments. Protein was expressed in E. coli, BLR (DE3) (Novagen), transformed with the deletion variant CG53135-02 inserted into a pET24a vector (Novagen). A research cell bank (RCB) was produced and cell paste containing CG53135-02 was produced by fermentation of cells originating from the RCB. Cell membranes were disrupted by high-pressure homogenization, and lysate was clarified by centrifugation. CG53135-02 was purified by ion exchange chromatography. The final protein fraction was dialyzed against the formulation buffer (100 mM citrate, 1 mM ethylenediaminetetraacetic acid (EDTA), and 1 M L-arginine).
(§3) CG53135-05, DEV10, which were also used in these experiments, was prepared by Cambrex Biosciences (Hopkinton, Mass.) according to Process 1 as described in Section 6.18.1, infra.
(§4) BrdU Incorporation: proliferative activity was measured by treatment of serum-starved cultured cells with a given agent and measurement of BrdU incorporation during DNA synthesis. Cells were cultured in respective manufacturer recommended basal growth medium supplemented with 10% fetal bovine serum or 10% calf serum as per manufacturer recommendations. Cells were grown in 96-well plates to confluence at 37° C. in 10% CO2/air (to subconfluence at 5% CO2 for dedifferentiated chondrocytes and NHOst). Cells were then starved in respective basal growth medium for 24-72 hours. CG53135 protein purified from E. coli or pCEP4/Sec or pCEP4/Sec-FGF 20× enriched conditioned medium was added (10 μL/100 μL of culture) for 18 hours. BrdU (10 μM final concentration) was then added and incubated with the cells for 5 hours. BrdU incorporation was assayed according to the manufacturer's specifications (Roche Molecular Biochemicals, Indianapolis, Ind.).
(§5) The above described experiments were also performed using CG53135-02 and CG53135-05 protein products, and the results are summarized in the Conclusion section below.

[2] = test system: mesenchymal and epithelial cells; test: Proliferation summary for variants; type: cell-based; settings: in vitro
Method: as §1, §2, §3, §4, §5

[3] = test system: DSS-induced ulcerative colitis in female Swiss Webster mice; test: Chronic 2 week DSS-induced ulcerative colitis (N-404); type: in vivo, mouse
Method: Colitis was induced in female Swiss Webster mice by exposure to 3% DSS in the drinking water (ad libitum) on study Days 1-5 and maintained by exposure to 1% DSS in the drinking water (ad libitum) on study Days 6-15. Mice were randomly assigned to 4 groups of 15 animals (Table X). Mice were exposed to 3% DSS in drinking water on test Days 1 through 5 and 1% DSS on test Days 6-15, with concurrent intraperitoneal (IP) treatments of vehicle or CG53135-05 at 0.33, 1.67 and 3.33 mg/kg (UV) Days 6-14 after disease was established. Mice were weighed daily. On Day 15 animals were terminated by cervical dislocation, the colon length was measured, and colon content was scored. Tissues were collected into 10% neutral buffered formalin and processed routinely for histopathology.
Clinical Parameters and Gross Pathology: Only animals that survived the duration of the study were included in the analysis of body weight change, terminal colon lengths, and colon content scores. At necropsy, the colon length was measured and assessed for evidence of stool consistency changes. Colon content was scored at necropsy according to the following criteria: 0=Normal (firm, well formed stool); 1=Semi-solid stool; 2=Semi-solid to fluid stool; and 3=Semi-solid with definite evidence of blood, bloody fluid or no content.
Histopathology: At necropsy, the colon was harvested and divided into 2 approximately equal segments, proximal and distal, to assess regional changes induced in this model. Distal ends were marked to maintain orientation. These colon segments were collected, preserved in 10% neutral buffered formalin, and routinely processed for histopathologic evaluation. During processing for histology, the proximal and distal colon segments were each trimmed to obtain 4 equally spaced segments, and hematoxylin and eosin (H&E) stained slides were prepared for each. Both proximal and distal tissues were examined as these tissues are affected to different degrees of severity in this model (more severe and less variable symptoms predominate in the distal colon).
For each colon section, submucosal edema was quantified by measuring the distance (mm) from the muscularis mucosa to the internal border of the outer muscle layer. The extent of inflammation (foamy macrophages, lymphocytes and polymorphonuclear cell infiltrate) was assigned severity scores according to the following ranking: 0=Normal; 1=Minimal; 2=Mild; 3=Moderate; 4=Marked; and 5=Severe.
The parameters reflecting epithelial cell loss/damage were scored individually using a percent area involved scoring method. Parameters that were scored using the percent involvement scale included colon glandular loss and colon erosion. • 0=None • 1=1-10% of the mucosa affected • 2=11-25% of the mucosa affected • 3=26-50% of the mucosa affected • 4=51-75% of the mucosa affected • 5=76-100% of the mucosa affected
Mucosal epithelial hyperplasia (basophilia, mitotic figures, multilayered on basement membranes, absence of goblet cells) was scored 0-5 based on the following criteria • 0=Normal • 1=Minimal-small foci generally adjacent to the inflammatory changes • 2=Mild-11-25% of mucosa affected • 3=Moderate-26-50% of mucosa affected • 4=Marked-[…] of mucosa affected • 5=Severe-51-100% of mucosa affected plus papillary proliferation into lumen
Mucosal thickness (an indicator of proliferative changes or edematous inflammatory mucosal expansion) was measured by placing an ocular micrometer at the base of the glands and the overlying surface epithelium in a non-tangential area of section representative of the thickest areas of mucosa.
The scores for proximal tissues and distal colon were averaged to determine a score for the entire colon for each parameter evaluated. […]

[4] = test system: chronic DSS-induced ulcerative colitis in female Swiss Webster mice; test: Chronic DSS colitis, every other day dosing (N-405); type: in vivo, mouse; settings: 3.33 mg/kg (UV) IP on Days 6, 8, 10, 12, 14 (q2d)
[5] = 3.33 mg/kg (UV), non-significant

## CG53135-05: Codon optimized, full length FGF-20, untagged; SEQ ID NOs 8 and 2
[1]
  induction of DNA synthesis / activity in proliferation assays: dose-dependent manner
Endothelial cells
  proliferation of endothelial cells: not
[2]
  proliferation of mesenchymal and epithelial cells: induce proliferation
[3]; 0.33 mg/kg (UV) IP once daily Days 6-14
  reduction in weight loss: 19%
[3]; 1.67 mg/kg (UV) IP once daily Days 6-14
  reduction in weight loss: 35%
[3]; 3.33 mg/kg (UV)
  improvement in "on" inflammation: 35%
  improvement in distal gland loss: 38%
  improvement in distal summed histopathologic scores: 38%
  improvement in total gland loss: 37%
  improvement in total inflammation: 34%
  improvement in total summed histopathologic scores: 37%
[3]; 3.33 mg/kg (UV) IP once daily Days 6-14
  reduction in weight loss: 67%
[3]; [5]
  improvement in the hyperplasia score: 31%
  inhibition of the total mucosal thickness: 39%
[3]; 3.33 mg/kg (UV), statistically significant
  colon length, inhibition of decrease: 29%
[3]; 1.67 or 3.33 mg/kg (UV)
  improvement of colon scores: 21-29%
[3]; mid and high dose groups, non-significant
  inhibition of proximal, distal and total colon erosion: 46-62%
[4]
  severity of chronic DSS-induced ulcerative colitis: significantly reduced the severity
